According to patent publication US20060069110A1, “Substituted heterocyclic compounds and methods of use” (priority 2004, published 2006):

System: THP1 cells (LPS induced TNF release)
Experiment: Lipopolysaccharide-Activated THP1 Cell TNF Production Assay
Assay type: cell-based
Settings: Homo sapiens, THP-1; THP1 cells, bacterial LPS, secreted TNF-α after 3 h at 37° C.; read-out: IC50 values in the THP1 cell assay (LPS induced TNF release)
Method in brief: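 THP1 cells at 1E6/mL were treated with 3-fold serial compound dilutions and LPS (1 μg/mL stock) for 3 h at 37 °C. Secreted TNF-α was quantified by electrochemiluminescent sandwich immunoassay. Percent of DMSO control versus concentration was fitted to a 4-parameter equation.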

## CNC(=O)c1cnc(-c2ccccc2)nc1Nc1ccnc(N[C@@H](C)Cc2cccc(CN)c2)n1 [(S)-4-(2-(1-(3-(aminomethyl)phenyl)-propan-2-ylamino)pyrimidin-4-ylamino)-N-methyl-2-phenylpyrimidine-5-carboxamide]
  IC50: ≤ 20 µM

## CC(=O)N1CCC(Nc2nccc(N(C)c3ccnc(-c4ccccc4)n3)n2)CC1 [Example 22, 1-(4-(4-(Methyl(2-phenylpyrimidin-4-yl)amino)pyrimidin-2-ylamino)piperidin-1-yl)ethanone]
  IC50: ≤ 20 µM

## CC(=O)N1CCC(Nc2nccc(N(C)c3c[nH]c(=O)c(-c4ccccc4)c3)n2)CC1 [Example 167, 5-((2-(1-Acetylpiperidin-4-ylamino)pyrimidin-4-yl)(methyl)amino)-3-phenyl-pyridin-2(1H)-one]
  IC50: ≤ 20 µM

## C[C@@H](Cc1cccc(CN)c1)Nc1nccc(N(C)c2ccnc(-c3cccc(F)c3)n2)n1 [Example 85, N^2-((S)-1-(3-(Aminomethyl)phenyl)propan-2-yl)-N^4-(2-(3-fluorophenyl)pyrimidin-4-yl)-N^4-methylpyrimidine-2,4-diamine]
  IC50: ≤ 20 µM

## CN(c1cncc(-c2ccccc2)n1)c1ccnc(N[C@H]2CC[C@H](N)CC2)n1 [Example 124, N^2-((1r, 4r)-4-Aminocyclohexyl)-N^4-methyl-N^4-(6-phenylpyrazine-2-yl)pyrimidine-2,4-diamine]
  IC50: ≤ 20 µM

## C[C@H](N)C(=O)N1CCC(Nc2nccc(N(C)c3ccnc(-c4ccccc4)n3)n2)CC1 [Example 23]
  IC50: ≤ 20 µM

## COc1cccc(-c2cccc(N(C)c3ccnc(NCCc4ccccc4)n3)n2)c1 [Example 141, N^4-(6-(3-Methoxyphenyl)pyridin-2-yl)-N^4-methyl-N^2-phenethylpyrimidine-2,4-diamine]
  IC50: ≤ 20 µM

## COc1ncc(N(C)c2ccnc(NCCc3ccccc3)n2)cc1-c1ccccc1 [Example 172, N^4-(6-Methoxy-5-phenylpyridin-3-yl)-N^4-methyl-N^2-phenethylpyrimidine-2,4-diamine]
  IC50: ≤ 20 µM

## CN(c1ccnc(NCCc2ccccc2)n1)c1ccnc(-c2ccccc2)n1 [Example 106, N^4-Methyl-N^2-phenethyl-N^4-(2-phenylpyrimidin-4-yl)pyrimidine-2,4-diamine]
  IC50: ≤ 20 µM

## CN(c1ccnc(NCCc2cccnc2)n1)c1ccnc(-c2ccsc2)n1 [Example 74, N^4-Methyl-N^2-(2-(pyridin-3-yl)ethyl)-N^4-(2-(thiophen-3-yl)pyrimidin-4-yl)-pyrimidine-2,4-diamine]
  IC50: ≤ 20 µM

## CN(c1ccnc(NC(C)(C)CNC(=O)OC(C)(C)C)n1)c1ccnc(-c2ccccc2)n1 [Example 26, tert-Butyl 2-methyl-2-(4-(methyl(2-phenylpyrimidin-4-yl)amino)pyrimidin-2-yl-amino)propylcarbamate]
  IC50: ≤ 20 µM

## C[C@@H](Cc1cccc(CN)c1)Nc1nccc(N(C)c2cc(-c3ccccc3)c(=O)n(C)c2)n1 [Example 178, (S)-5-((2-(1-(3-(Aminomethyl)phenyl)propan-2-ylamino)pyrimidin-4-yl)(methyl)-amino)-1-methyl-3-phenylpyridin-2(1H)-one]
  IC50: ≤ 20 µM

## C[C@@H](Cc1cccc(CN)c1)Nc1nccc(N(C)c2c[nH]c(=O)c(-c3ccccc3)c2)n1 [Example 168, (S)-5-((2-(1-(3-(Aminomethyl)phenyl)propan-2-ylamino)pyrimidin-4-yl)(methyl)-amino)-3-phenylpyridin-2(1H)-one]
  IC50: ≤ 20 µM

## CN(c1ccnc(-c2ccccc2)n1)c1nc(NCCc2cccnc2)ncc1F [Example 70, 5-Fluoro-N^4-methyl-N^4-(2-phenylpyrimidin-4-yl)-N^2-(2-(pyridin-3-yl)ethyl)-pyrimidine-2,4-diamine]
  IC50: ≤ 20 µM

## CN(c1ccnc(N[C@@H](CCN2CCOCC2)Cc2ccccc2)n1)c1ccnc(-c2ccccc2)n1 [Example 54, (R)-N^4-Methyl-N^2-(4-morpholino-1-phenylbutan-2-yl)-N^4-(2-phenylpyrimidin-4-yl)pyrimidine-2,4-diamine]
  IC50: ≤ 20 µM

## CN(c1ccnc(NCCc2cccnc2)n1)c1ccnc(-c2ccccc2F)n1 [Example 71, N^4-(2-(2-Fluorophenyl)pyrimidin-4-yl)-N^4-methyl-N^2-(2-(pyridin-3-yl)ethyl)-pyrimidine-2,4-diamine]
  IC50: ≤ 20 µM

## CN(c1ccnc(NCCc2cccnc2)n1)c1ccnc(-c2cccs2)n1 [Example 79, N^4-Methyl-N^2-(2-(pyridin-3-yl)ethyl)-N^4-(2-(thiophen-2-yl)pyrimidin-4-yl)-pyrimidine-2,4-diamine]
  IC50: ≤ 20 µM

## CCOC(=O)c1cnc(-c2ccccc2)nc1Nc1ccnc(NCCc2ccccn2)n1 [Example 98, Ethyl 2-phenyl-4-(2-(2-(pyridin-2-yl)ethylamino)pyrimidin-4-ylamino)pyrimidine-5-carboxylate]
  IC50: ≤ 20 µM

## CN(c1ccnc(NCCc2cccnc2)n1)c1nc(-c2ccccc2)ncc1C(N)=O [Example 64, 4-(Methyl(2-(2-(pyridin-3-yl)ethylamino)pyrimidin-4-yl)amino)-2-phenyl-pyrimidine-5-carboxamide]
  IC50: ≤ 20 µM

## CN(c1c[nH]c(=O)c(-c2ccccc2)c1)c1ccnc(NCCc2ccccc2)n1 [Example 166, 5-(Methyl(2-(phenethylamino)pyrimidin-4-yl)amino)-3-phenylpyridin-2(1H)-one]
  IC50: ≤ 20 µM

## C[C@@H](N)CC(=O)N1CCC(Nc2nccc(N(C)c3ccnc(-c4ccccc4)n3)n2)CC1 [Example 44, (R)-3-Amino-1-(4-(4-(methyl(2-phenylpyrimidin-4-yl)amino)pyrimidin-2-ylamino)-piperidin-1-yl)butan-1-one]
  IC50: ≤ 20 µM

## COc1ccccc1-c1nccc(N(C)c2ccnc(NCCc3cccnc3)n2)n1 [Example 104, N^4-(2-(2-Methoxyphenyl)pyrimidin-4-yl)-N^4-methyl-N^2-(2-(pyridin-3-yl)ethyl)-pyrimidine-2,4-diamine]
  IC50: ≤ 20 µM

## CN(c1ccnc(N[C@H](Cc2ccccc2)C(N)=O)n1)c1ccnc(-c2ccccc2)n1 [Example 39]
  IC50: ≤ 20 µM

## CN(c1ccnc(N[C@H](CCO)c2ccccc2)n1)c1ccnc(-c2ccccc2)n1 [Example 31, (R)-3-(4-(Methyl(2-phenylpyrimidin-4-yl)amino)pyrimidin-2-ylamino)-3-phenylpropan-1-ol]
  IC50: ≤ 20 µM

## CN(c1cccc(-c2ccc(F)c(F)c2)n1)c1ccnc(NCCc2ccccc2)n1 [Example 144, N^4-(6-(3,4-Difluorophenyl)pyridin-2-yl)-N^4-methyl-N^2-phenethylpyrimidine-2,4-diamine]
  IC50: ≤ 20 µM

## C[C@@H](Cc1cccc(CN)c1)Nc1nccc(N(C)c2nc(-c3ccccc3F)ncc2F)n1 [Example 68, N^2-((S)-1-(3-(Aminomethyl)phenyl)propan-2-yl)-N^4-(5-fluoro-2-(2-fluorophenyl)-pyrimidin-4-yl)-N^4-methylpyrimidine-2,4-diamine]
  IC50: ≤ 20 µM

## CC(Cc1cccc(CN)c1)Nc1nccc(N(C)c2cc(Cl)nc(-c3ccccc3)c2)n1 (centres unmarked) [Example 164, N^2-(1-(3-(Aminomethyl)phenyl)propan-2-yl)-N^4-(2-chloro-6-phenylpyridin-4-yl)-N4-methylpyrimidine-2,4-diamine]
  IC50: ≤ 20 µM

## CN(c1ccnc(N[C@@H](CCN)Cc2ccccc2)n1)c1ccnc(-c2ccccc2)n1 [Example 57, (R)-N^2-(4-Amino-1-phenylbutan-2-yl)-N^4-methyl-N^4-(2-phenylpyrimidin-4-yl)pyrimidine-2,4-diamine]
  IC50: ≤ 20 µM

## CN(c1ccnc(NC(C)(C)Cc2ccccc2)n1)c1ccnc(-c2ccccc2)n1 [Example 6, N^4-Methyl-N^2-(2-methyl-1-phenylpropan-2-yl)-N^4-(2-phenylpyrimidin-4-yl)pyrimidine-2,4-diamine]
  IC50: ≤ 20 µM

## CN(c1ccnc(NCCc2ccccc2Cl)n1)c1nccc(-c2ccccc2)n1 [Example 185, N^2-(2-Chlorophenethyl)-N^4-methyl-N^4-(4-phenylpyrimidin-2-yl)pyrimidine-2,4-diamine]
  IC50: ≤ 20 µM

## CN(c1cccc(-c2ccoc2)n1)c1ccnc(NCCc2ccccc2)n1 [Example 146, N^4-(6-(Furan-3-yl)pyridin-2-yl)-N^4-methyl-N^2-phenethylpyrimidine-2,4-diamine]
  IC50: ≤ 20 µM

## CN(c1cccc(-c2cccc(F)c2F)n1)c1ccnc(NCCc2ccccc2)n1 [Example 145, N^4-(6-(2,3-Difluorophenyl)pyridin-2-yl)-N^4-methyl-N^2-phenethylpyrimidine-2,4-diamine]
  IC50: ≤ 20 µM

## C[C@@H](Cc1cccc(CN)c1)Nc1nccc(N(C)c2ccnc(-c3ccc(F)cc3F)n2)n1 [Example 91, N^2-((S)-1-(3-(Aminomethyl)phenyl)propan-2-yl)-N^4-(2-(2,4-difluorophenyl)-pyrimidin-4-yl)-N^4-methylpyrimidine-2,4-diamine]
  IC50: ≤ 20 µM

## CN(c1ccnc(NCCc2cccnc2)n1)c1ccnc(-c2cccc(F)c2F)n1 [Example 76, N^4-(2-(2,3-Difluorophenyl)pyrimidin-4-yl)-N^4-methyl-N^2-(2-(pyridin-3-yl)ethyl)-pyrimidine-2,4-diamine]
  IC50: ≤ 20 µM

## C[C@H](N)c1ccc(CCNc2nccc(N(C)c3ccnc(-c4ccccc4)n3)n2)cc1 [Example 28, (S)-N^2-(4-(1-Aminoethyl)phenethyl)-N^4-methyl-N^4-(2-phenylpyrimidin-4-yl)-pyrimidine-2,4-diamine]
  IC50: ≤ 20 µM

## CN(c1cccc(-c2ccsc2)n1)c1ccnc(NCCc2ccccc2)n1 [Example 147]
  IC50: ≤ 20 µM

## CN(c1ccnc(NCCc2cccnc2)n1)c1ccnc(-c2cccc(F)c2)n1 [Example 72, N^4-(2-(3-Fluorophenyl)pyrimidin-4-yl)-N^4-methyl-N^2-(2-(pyridin-3-yl)ethyl)-pyrimidine-2,4-diamine]
  IC50: ≤ 20 µM

## CN(c1cccc(-c2cccc(Cl)c2)n1)c1ccnc(NCCc2ccccc2)n1 [Example 135, N^4-(6-(3-chlorophenyl)pyridin-2-yl)-N^4-methyl-N^2-phenethylpyrimidine-2,4-diamine]
  IC50: ≤ 20 µM
